According to patent publication US20180104059A1, “Delivery of Therapy to Living Tissue” (President and Fellows of Harvard College, priority 2015, published 2018):

Columns and labels:
[1] = system: canine model of myocardial infarction; conditions: ONO1301 alone or in combination with a VRD; cited from earlier work
[2] = in vivo; cited from earlier work
[3] = Delivery of fluorescently tagged protein via thericardium port versus intraperitoneal, fluorescence at target site; type: in vivo, rat; conditions: after three hours
Description: A bovine serum albumin solution tagged with a fluorescent molecule (Vivotag 800) was delivered via the port 18. […] The bioluminescence from the dose is shown for intraperitoneal delivery (at left) and for direct delivery via the thericardium 10 is shown in FIG. 28.

**Q.** Which results are given for `O=C(O)COc1cccc2c1CCC=C2CCO/N=C(\c1ccccc1)c1cccnc1` [ONO1301]?
**A.** HGF, VEGF and SDF-1 in the myocardium [1]: upregulation; myocardial vascularization [1]: increase in myocardial vascularization

**Q.** For `CC(C)NCC(O)COc1ccc(CC(N)=O)cc1` (centres unmarked) [atenolol], which “efficacy with intrapericardial delivery compared to IV administration” value [2] is on record?
**A.** improved the efficacy

**Q.** Which “protein at the target site (fluorescence)” value ([3]; delivered via the port) does the source give for “bovine serum albumin: bovine serum albumin solution tagged with a fluorescent molecule (Vivotag 800), model protein” here?
**A.** sustained concentration

**Q.** What about the “protein at the target site (fluorescence)” value ([3]; same amount injected intraperitoneally) of the same compound?
**A.** undetectable quantity
